Here are results for eleven compounds from ChEMBL document CHEMBL1201862, “PubChem BioAssay data set” (2004).

What all share (assay): NCI tumour cell line growth inhibition, 48 h
The test system of assay [1] is CAKI-1.
Assay [2] concerns DMS-114.
Assay [3] relates to DMS-273.
Assay [4] concerns EKVX.
In assay [5] the test system is HOP-92.
Assay [6] has as its system KM-20L2.
Assay [7] concerns NCI-H23.
Assay [8] deals with NCI-H460.
Assay [9] concerns OVCAR-5.
Assay [10] concerns OVCAR-8.
For assay [11], the system named is RPMI-8226.
Assay [12] relates to SK-MEL-2.
Assay [13] concerns TK-10.
In assay [14] the test system is UACC-62.
Assay [15] concerns XF498.
The test system of assay [16] is NCI/ADR-RES.
Assay [17] deals with RXF 631.
The subject of assay [18] is DU-145.
Assay [19] has as its system MDA-MB-435.
The subject of assay [20] is T47D.

Molecules are shown by their SMILES.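 Where inhibition never reached the appropriate level, the endpoint shown equals the highest concentration tested. Otherwise, values were interpolated linearly from a five-concentration, 48-hour dose response in 96-well plates. Here, GI50 denotes the concentration required for 50% inhibition of growth.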 Calls of active or inactive are those of the source. Rule as the data show it: active = GI50 up to about 1.1 µM and inactive = higher.

For the compound `O=C(Nc1ccc(F)cc1)C(=O)C(C(=O)c1ccccc1F)C1OC(=O)c2ccccc21` (centres undefined), the GI50 was > 100 µM (inactive) in assay [1]; 45.5 µM (inactive) in assay [2]; 43.3 µM (inactive) in assay [3]; 68.4 µM (inactive) in assay [4]; > 100 µM (inactive) in [5]; 86.3 µM (inactive) in [6]. In addition, the GI50 is > 100 µM (inactive) in assay [7]; 47 µM (inactive) in assay [8]; > 100 µM (inactive) in assay [9]; 43 µM (inactive) in assay [10]; 23.4 µM (inactive) in [11]; 54.1 µM (inactive) in assay [12]. The GI50 in assay [13] was > 100 µM (inactive); in assay [14], 39.9 µM (inactive); in assay [15], 50.8 µM (inactive).
As to `Cc1cc(C)c(C2=NO[C@@H]3[C@H]2C(=O)C=C2N(Cc4ccccc4)CCO[C@@]23O)c(C)c1`, the GI50 is 1 µM (active) in assay [1]; > 100 µM (inactive) in [3]; > 100 µM (inactive) in [4]; > 100 µM (inactive) in [5]; > 100 µM (inactive) in [6]; > 100 µM (inactive) in assay [7]. In addition, the GI50 in assay [8], in assay [16], in assay [9], in assay [10], in assay [11] and in assay [12] was > 100 µM (inactive) each time. The GI50 in assay [14] and in assay [15] was > 100 µM (inactive) throughout.
Take `CCOC(=O)c1nc2ccc(OC)cc2c2c1Cc1ccccc1-2`: the GI50 is > 100 µM (inactive) in assay [1]; 23.9 µM (inactive) in assay [2]; > 100 µM (inactive) in assay [3]; > 100 µM (inactive) in assay [6]; > 100 µM (inactive) in assay [7]; > 100 µM (inactive) in assay [8]. Moreover, the GI50 in assay [9] was > 100 µM (inactive); in assay [10], > 100 µM (inactive); in assay [11], > 100 µM (inactive); in [17], 61.7 µM (inactive); in assay [12], > 100 µM (inactive); in [13] it was > 100 µM (inactive). Further, the GI50 in assay [14] is 90.2 µM (inactive).
For the compound `CC1CC=CC(O)C1` (centres undefined), the GI50 in [2], in [3], in assay [4], in [5], in [6] and in assay [7] was > 100 µM (inactive) throughout. Besides, the GI50 in [8], in assay [16], in assay [9], in [10], in assay [11] and in assay [12] was > 100 µM (inactive) each time. Besides, the GI50 in [14] and in assay [15] was > 100 µM (inactive) throughout.
Take `C[C@H](C(=O)O)C(=O)NC(=O)N(Cc1ccccc1)N=O`: the GI50 in assay [1], in assay [2], in assay [3], in assay [4], in assay [6] and in assay [8] was > 100 µM (inactive) in each case. The GI50 in assay [9], in assay [10], in [11], in [12], in [13] and in assay [14] was > 100 µM (inactive) throughout. For the same compound, in assay [15], the GI50 was > 100 µM (inactive).
In the case of `O=S(O)c1cc(Cl)cc(Cl)c1O`, the GI50 is 80.9 µM (inactive) in [2]; > 100 µM (inactive) in [4]; > 100 µM (inactive) in assay [7]; > 100 µM (inactive) in assay [8]; > 100 µM (inactive) in assay [9]; > 100 µM (inactive) in [12]. Further, the GI50 in assay [13], in assay [14] and in assay [15] was > 100 µM (inactive) each time.
For the compound `CN(C)CCNC(=O)c1ccc(Cl)c2ccc(-c3ccccc3)nc12`, the GI50 in assay [1] is 2.69 µM (inactive); in assay [3] it was 3 µM (inactive); in assay [5], 2.02 µM (inactive); in assay [6], 2.62 µM (inactive); in assay [7], 5.38 µM (inactive); in [8], 2.07 µM (inactive). The GI50 in assay [16] was 2.42 µM (inactive); in assay [9], 3.49 µM (inactive); in [10] it was 2.57 µM (inactive); in assay [11], 2.51 µM (inactive); in assay [12] it was 7.67 µM (inactive); in [14], 2.69 µM (inactive). In addition, the GI50 in assay [15] was 3.16 µM (inactive).
As for `CC(C)C(=O)N1C(=O)O[C@@H](c2ccccc2)[C@H]1C`, the GI50 is > 37 µM (inactive) in [1]; > 100 µM (inactive) in [2]; > 100 µM (inactive) in assay [3]; > 100 µM (inactive) in assay [4]; > 100 µM (inactive) in assay [5]; > 100 µM (inactive) in assay [6]. For the same compound, the GI50 in assay [7], in [8], in [9], in [10], in assay [11] and in assay [12] was > 100 µM (inactive) throughout. The GI50 in assay [13], in [14] and in [15] was > 100 µM (inactive) each time.
For `NC(CCOCCP(=O)(O)CCOCCC(N)C(=O)O)C(=O)O` (centres undefined), the GI50 in [1], in assay [18], in assay [4], in assay [5], in assay [19] and in assay [7] was > 100 µM (inactive) throughout. For the same compound, the GI50 in assay [8], in [16], in assay [9], in [10], in [11] and in assay [12] was > 100 µM (inactive) each time. The GI50 in assay [20], in [13] and in [14] was > 100 µM (inactive) throughout.
Regarding `COc1cc(C2c3cc4c(cc3[C@@H](Nc3cccc([N+](=O)[O-])c3)C3COC(=O)[C@H]23)OCO4)cc(OC)c1O` (some centres undefined), the GI50 is 1.03 µM (active) in [1]; 2.7 µM (inactive) in [2]; 0.615 µM (active) in [3]; 3.56 µM (inactive) in assay [4]; 2.92 µM (inactive) in assay [5]; 3.64 µM (inactive) in assay [6]. Moreover, the GI50 in assay [7] was 1.55 µM (inactive); in assay [8] it was 0.02 µM (active); in assay [16], 8.07 µM (inactive); in assay [9] it was 2.16 µM (inactive); in assay [10] it was 2.51 µM (inactive); in assay [11] it was 3.05 µM (inactive). Further, the values for the GI50 in assay [12], in assay [14] and in [15] were 5.4 µM (inactive), 2.52 µM (inactive) and 3.13 µM (inactive), respectively.
Consider `OCC1C2C=CC(O2)[C@H]1CO` (some centres undefined), for which the GI50 is > 100 µM (inactive) in [1]; 92.7 µM (inactive) in [2]; > 100 µM (inactive) in assay [3]; > 100 µM (inactive) in assay [4]; > 100 µM (inactive) in assay [5]; > 100 µM (inactive) in [6]. The GI50 in assay [8], in [9], in assay [10], in assay [11], in assay [17] and in assay [13] was > 100 µM (inactive) each time. The GI50 in assay [14] was > 100 µM (inactive).
